Earlier results as cited in patent US12378302B2, “Fusion molecules and uses thereof” (Foundation Medicine, Inc., priority 2012, dated 2025).
Like-named read-outs stand apart in the source and are kept apart here.

Tests used:
[1] = tested on: HCV replicon genotypes and the JFH-1 genotype 2a infectious virus (HCV NS5A); conditions: cell culture
CSF-1R = CSF-1R (Homo sapiens, UniProt P07333); conditions: read-out: IC50 against CSF-1R
MEK1 = MEK1 (Homo sapiens, UniProt Q02750); conditions: read-out: IC50 against MEK1
[2] = tested on: Abl1, AKT3, c-RAF, CamK1, CDK2, c-Met
c-Met [3] = tested on: c-Met
c-Met [4] = biological target: c-Met (Homo sapiens, UniProt P08581); conditions: read-out: IC50 against c-Met (WT/mutants)
ALK = ALK (Homo sapiens, UniProt Q9UM73); conditions: read-out: IC50 ALK
[5] = tested on: CDK1/2/5, EGFR, FGFR, PDGFR, and InsR
CDK1/2/3/4/7/9 = conditions: range over the CDKs
MEK1/2 = conditions: read-out: IC50 against MEK1/2
[6] = tested on: cytokine production such as IL-1, TNF and IL-6; conditions: clinical trials
[7] = tested on: IGF-1R, Met, Src, Lck, Zap70, Abl and CDK2
[8] = tested on: Flk-1 and FGFR1 trans-phosphorylation
MEK = conditions: read-out: IC50 against MEK
[9] = tested on: Erk1, MKK3, MKK4, c-JUN, PKC, PKA, or CamKII
MEK2 = MEK2 (Homo sapiens, UniProt P36507); conditions: read-out: IC50 against MEK2
[10] = tested on: myeloproliferative disorders
HEL92.1.7 cells [11] = conditions: read-out: IC50 antiproliferative activity in vitro
HEL92.1.7 cells [12] = conditions: read-out: IC50 antiproliferative activity
[13] = tested on: myeloproliferative disorders; remark: listed apart in the source
STAT5 phosphorylation [14] = tested on: STAT5 phosphorylation
STAT5 phosphorylation [15] = conditions: read-out: IC50 for prevention of STAT5 phosphorylation
PDGFR = conditions: read-out: IC50 against PDGFR
EGFR = EGFR (Homo sapiens, UniProt P00533)
[16] = tested on: MEK1, MEK2, ERK2, and JNK2

Chain of MEK1 (Q02750 whole entry, species assumed): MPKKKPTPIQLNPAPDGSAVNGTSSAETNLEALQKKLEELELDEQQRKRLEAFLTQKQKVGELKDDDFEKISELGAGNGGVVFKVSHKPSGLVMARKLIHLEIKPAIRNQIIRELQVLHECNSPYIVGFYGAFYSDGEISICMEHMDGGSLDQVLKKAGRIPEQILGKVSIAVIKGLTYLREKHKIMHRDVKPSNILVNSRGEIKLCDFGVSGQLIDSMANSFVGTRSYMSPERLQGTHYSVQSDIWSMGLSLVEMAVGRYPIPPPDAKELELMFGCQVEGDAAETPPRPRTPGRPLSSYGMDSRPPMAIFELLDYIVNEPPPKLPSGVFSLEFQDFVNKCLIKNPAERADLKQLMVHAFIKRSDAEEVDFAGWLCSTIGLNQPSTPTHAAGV
Chain of EGFR (P00533 25-1210): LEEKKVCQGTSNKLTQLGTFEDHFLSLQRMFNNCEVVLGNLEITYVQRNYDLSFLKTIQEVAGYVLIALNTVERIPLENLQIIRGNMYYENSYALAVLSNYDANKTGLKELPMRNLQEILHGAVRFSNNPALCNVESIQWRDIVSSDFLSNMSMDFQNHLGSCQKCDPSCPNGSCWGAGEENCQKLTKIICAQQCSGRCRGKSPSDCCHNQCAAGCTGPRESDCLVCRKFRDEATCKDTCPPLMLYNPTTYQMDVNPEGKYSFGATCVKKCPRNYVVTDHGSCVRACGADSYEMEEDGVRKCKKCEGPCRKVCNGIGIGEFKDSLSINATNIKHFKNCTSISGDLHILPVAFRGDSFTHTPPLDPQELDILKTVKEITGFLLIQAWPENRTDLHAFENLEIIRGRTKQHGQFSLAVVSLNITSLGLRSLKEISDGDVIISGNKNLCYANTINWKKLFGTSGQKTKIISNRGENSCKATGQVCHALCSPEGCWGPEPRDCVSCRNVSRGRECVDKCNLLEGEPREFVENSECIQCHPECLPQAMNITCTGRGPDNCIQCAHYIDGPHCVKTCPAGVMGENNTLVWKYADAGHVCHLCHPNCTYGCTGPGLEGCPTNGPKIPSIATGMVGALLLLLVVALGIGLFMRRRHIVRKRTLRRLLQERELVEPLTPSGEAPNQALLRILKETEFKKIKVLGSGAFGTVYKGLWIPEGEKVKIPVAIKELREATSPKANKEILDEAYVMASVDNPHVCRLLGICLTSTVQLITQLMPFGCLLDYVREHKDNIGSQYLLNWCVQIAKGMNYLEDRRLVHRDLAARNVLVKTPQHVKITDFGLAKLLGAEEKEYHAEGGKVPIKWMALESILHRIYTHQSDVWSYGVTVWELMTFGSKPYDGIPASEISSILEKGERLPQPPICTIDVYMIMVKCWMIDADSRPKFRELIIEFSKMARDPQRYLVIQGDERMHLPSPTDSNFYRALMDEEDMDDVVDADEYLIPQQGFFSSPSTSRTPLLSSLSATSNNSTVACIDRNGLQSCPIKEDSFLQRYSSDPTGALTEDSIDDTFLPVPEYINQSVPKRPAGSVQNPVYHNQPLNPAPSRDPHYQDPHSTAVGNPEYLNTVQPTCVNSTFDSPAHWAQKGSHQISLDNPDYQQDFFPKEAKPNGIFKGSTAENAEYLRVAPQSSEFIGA
Chain of ALK (Q9UM73 19-1620): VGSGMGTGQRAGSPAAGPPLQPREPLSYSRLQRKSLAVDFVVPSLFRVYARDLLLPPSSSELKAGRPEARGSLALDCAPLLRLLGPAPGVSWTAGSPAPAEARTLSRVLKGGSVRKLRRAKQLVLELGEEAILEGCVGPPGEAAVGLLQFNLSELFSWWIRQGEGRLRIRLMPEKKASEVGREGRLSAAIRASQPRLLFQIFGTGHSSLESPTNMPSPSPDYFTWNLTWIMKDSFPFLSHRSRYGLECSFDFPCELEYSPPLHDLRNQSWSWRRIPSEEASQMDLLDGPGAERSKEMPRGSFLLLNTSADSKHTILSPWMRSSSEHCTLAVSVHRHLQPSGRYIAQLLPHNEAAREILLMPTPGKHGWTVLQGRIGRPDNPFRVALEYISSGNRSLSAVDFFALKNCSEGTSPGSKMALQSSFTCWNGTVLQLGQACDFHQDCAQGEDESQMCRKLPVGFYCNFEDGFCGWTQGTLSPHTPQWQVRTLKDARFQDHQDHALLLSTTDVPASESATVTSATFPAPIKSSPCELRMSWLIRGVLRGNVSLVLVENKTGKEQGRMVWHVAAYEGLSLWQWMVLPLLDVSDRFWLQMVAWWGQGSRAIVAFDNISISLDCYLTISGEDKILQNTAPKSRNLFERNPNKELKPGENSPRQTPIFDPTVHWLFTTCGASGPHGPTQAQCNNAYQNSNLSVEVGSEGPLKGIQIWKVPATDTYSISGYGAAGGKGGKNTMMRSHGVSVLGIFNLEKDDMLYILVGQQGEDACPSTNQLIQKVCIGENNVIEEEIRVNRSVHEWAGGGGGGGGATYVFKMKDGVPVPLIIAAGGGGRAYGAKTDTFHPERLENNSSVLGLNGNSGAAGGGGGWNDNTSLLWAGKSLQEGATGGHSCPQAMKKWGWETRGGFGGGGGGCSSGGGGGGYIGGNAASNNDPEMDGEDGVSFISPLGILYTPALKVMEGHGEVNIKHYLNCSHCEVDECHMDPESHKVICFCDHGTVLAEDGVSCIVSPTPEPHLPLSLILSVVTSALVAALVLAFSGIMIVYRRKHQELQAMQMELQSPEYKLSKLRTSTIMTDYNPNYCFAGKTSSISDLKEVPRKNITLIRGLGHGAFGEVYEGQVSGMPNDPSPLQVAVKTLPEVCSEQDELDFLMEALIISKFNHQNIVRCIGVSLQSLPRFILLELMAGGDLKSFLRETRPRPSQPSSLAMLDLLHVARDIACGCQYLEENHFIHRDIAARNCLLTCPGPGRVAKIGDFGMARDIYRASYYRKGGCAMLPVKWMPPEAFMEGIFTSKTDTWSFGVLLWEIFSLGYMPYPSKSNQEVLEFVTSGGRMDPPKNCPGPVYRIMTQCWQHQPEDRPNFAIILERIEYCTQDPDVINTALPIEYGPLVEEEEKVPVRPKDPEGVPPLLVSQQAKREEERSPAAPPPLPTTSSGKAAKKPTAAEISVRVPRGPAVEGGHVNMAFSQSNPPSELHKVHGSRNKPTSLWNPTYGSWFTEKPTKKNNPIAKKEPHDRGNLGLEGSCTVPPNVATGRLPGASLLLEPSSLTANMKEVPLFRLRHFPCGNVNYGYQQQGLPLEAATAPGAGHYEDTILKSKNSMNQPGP
Chain of MEK2 (P36507 whole entry, species assumed): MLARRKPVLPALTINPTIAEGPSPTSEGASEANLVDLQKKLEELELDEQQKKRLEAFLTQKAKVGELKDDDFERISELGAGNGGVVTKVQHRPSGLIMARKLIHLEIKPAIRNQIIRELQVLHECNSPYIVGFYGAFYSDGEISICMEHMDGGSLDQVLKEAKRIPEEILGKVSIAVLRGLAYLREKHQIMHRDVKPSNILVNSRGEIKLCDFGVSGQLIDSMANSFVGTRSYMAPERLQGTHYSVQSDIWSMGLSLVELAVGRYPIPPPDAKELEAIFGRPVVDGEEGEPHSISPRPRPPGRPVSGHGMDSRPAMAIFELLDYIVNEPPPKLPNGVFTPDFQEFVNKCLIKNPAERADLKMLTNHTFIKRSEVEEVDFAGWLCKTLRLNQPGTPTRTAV
Chain of CSF-1R (P07333 20-972, species assumed): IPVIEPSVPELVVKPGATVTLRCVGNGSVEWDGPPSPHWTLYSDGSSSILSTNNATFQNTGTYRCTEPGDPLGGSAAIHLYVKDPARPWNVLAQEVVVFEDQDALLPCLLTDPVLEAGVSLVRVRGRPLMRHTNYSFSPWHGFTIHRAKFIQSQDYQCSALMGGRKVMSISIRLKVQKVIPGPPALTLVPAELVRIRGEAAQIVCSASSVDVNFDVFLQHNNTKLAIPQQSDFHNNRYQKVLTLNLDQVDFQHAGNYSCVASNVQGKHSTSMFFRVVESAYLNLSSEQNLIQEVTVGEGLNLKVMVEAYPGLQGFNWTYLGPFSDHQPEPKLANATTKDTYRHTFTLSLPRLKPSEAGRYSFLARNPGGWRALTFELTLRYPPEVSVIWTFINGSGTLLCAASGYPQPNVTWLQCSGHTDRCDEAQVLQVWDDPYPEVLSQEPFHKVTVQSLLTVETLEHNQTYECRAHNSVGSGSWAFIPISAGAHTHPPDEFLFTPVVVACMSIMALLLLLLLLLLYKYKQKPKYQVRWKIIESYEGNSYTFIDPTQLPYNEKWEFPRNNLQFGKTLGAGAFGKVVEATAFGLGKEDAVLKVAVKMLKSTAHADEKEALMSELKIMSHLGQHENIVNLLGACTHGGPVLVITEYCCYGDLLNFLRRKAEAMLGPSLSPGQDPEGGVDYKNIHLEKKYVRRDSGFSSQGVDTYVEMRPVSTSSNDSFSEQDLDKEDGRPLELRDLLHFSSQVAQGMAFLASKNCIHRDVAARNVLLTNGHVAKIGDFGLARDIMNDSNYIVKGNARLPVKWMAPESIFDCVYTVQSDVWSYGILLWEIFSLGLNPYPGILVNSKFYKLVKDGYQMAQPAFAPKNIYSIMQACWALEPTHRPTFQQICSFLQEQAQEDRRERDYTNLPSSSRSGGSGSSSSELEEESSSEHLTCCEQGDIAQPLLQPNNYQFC

## COC(=O)N[C@H](C(=O)N1CCC[C@H]1c1ncc(-c2ccc(-c3ccc(-c4cnc([C@@H]5CCCN5C(=O)[C@@H](NC(=O)OC)C(C)C)[nH]4)cc3)cc2)[nH]1)C(C)C [BMS-790052, Carbamic acid, N,N′-[[1,1′-biphenyl]-4,4′-diylbis[1H-imidazole-5,2-diyl-(2S)-2,1-pyrrolidinediyl[(1S)-1-(1-methylethyl)-2-oxo-2,1-ethanediyl]]]bis-,C,C′-dimethyl ester]
[1]
  EC50: 0.009 to 0.05 nM

## O=C(Nc1ccc(OC(F)(F)F)cc1)c1sccc1NCc1ccnc2ccccc12 [OSI-930]
PDGFRα/β, Flt-3 and Abl
  Activity against PDGFRα/β, Flt-3 and Abl: low activity
CSF-1R
  IC50: 15 nM
Flt-1, c-Raf and Lck
  Potency to Flt-1, c-Raf and Lck: also potent

## Cn1c(=O)c(F)c(Nc2ccc(I)cc2F)c2c(=O)n(C[C@@H](O)CO)cnc21 [TAK-733, (R)-3-(2,3-dihydroxypropyl)-6-fluoro-5-(2-fluoro-4-iodophenylamino)-8-methylpyrido[2,3-d]pyrimidine-4,7(3H,8H)-dione]
MEK1
  IC50: ~3.2 nM
[2]
  Activity to Abl1, AKT3, c-RAF, CamK1, CDK2, c-Met: inactive

## CN(C[C@@H]1COCCO1)S(=O)(=O)Nc1ccc2ccc3ncc(-c4cnn(C)c4)cc3c(=O)c2c1 [MK-2461, N-((2R)-1,4-Dioxan-2-ylmethyl)-N-methyl-N′-[3-(1-methyl-1H-pyrazol-4-yl)-5-oxo-5H-benzo[4,5]cyclohepta[1,2-b]pyridin-7-yl]sulfamide]
c-Met [3]
  Selectivity of c-Met targets versus FGFR1, FGFR2, FGFR3, PDGFRβ, KDR, Flt3, Flt4, TrkA, and TrkB: 8- to 30 fold
c-Met [4]
  IC50: 0.4 to 2.5 nM
Ron, Flt1
  Potency to Ron, Flt1: less potent

## O=C(NC[C@H](O)CO)c1ccncc1Nc1ccc(I)cc1F [AS-703026, (S)—N-(2,3-dihydroxypropyl)-3-(2-fluoro-4-iodophenylamino) isonicotinamide]
MM cell lines
  IC50: 5 to 2000 nM

## COc1cc(CCc2cc(NC(=O)c3ccc(N4C[C@@H](C)N[C@@H](C)C4)cc3)n[nH]2)cc(OC)c1 [AZD4547, N-(5-(3,5-dimethoxyphenethyl)-1H-pyrazol-3-yl)-4-((3S,5R)-3,5-dimethylpiperazin-1-yl)benzamide]
FGFR4, VEGFR2 (KDR)
  Activity against FGFR4, VEGFR2 (KDR): weaker activity

## COc1cc(N2CCC(N)CC2)ccc1Nc1ncc(Cl)c(-c2c[nH]c3ccccc23)n1 [AZD-3463, 2-Pyrimidinamine, N-[4-(4-amino-1-piperidinyl)-2-methoxyphenyl]-5-chloro-4-(1H-indol-3-yl)-]
ALK
  IC50: 22 nM

## CC(=O)c1c(C)c2cnc(Nc3ccc(N4CCNCC4)cn3)nc2n(C2CCCC2)c1=O [PD0332991 Isethionate, Ethanesulfonic acid, 2-hydroxy-, compd. with 6-acetyl-8-cyclopentyl-5-methyl-2-[[5-(1-piperazinyl)-2-pyridinyl]amino]pyrido[2,3-d]pyrimidin-7(8H)-one (1:1)]
[5]
  activity against CDK1/2/5, EGFR, FGFR, PDGFR, and InsR: no activity

## Cc1cc2c(F)c(Oc3ncnn4cc(OC[C@@H](C)O)c(C)c34)ccc2[nH]1 [Brivanib, (R)-1-(4-(4-fluoro-2-methyl-1H-indol-5-yloxy)-5-methylpyrrolo[1,2-f][1,2,4]triazin-6-yloxy)propan-2-ol]
VEGFR-1 and FGFR-1
  Potency against VEGFR-1 and FGFR-1: moderate potency

## C[C@@H](O)[C@@H](C)Oc1nc(Nc2ccc(S(=N)(=O)C3CC3)cc2)ncc1C(F)(F)F (stereo partly drawn) [BAY 1000394, 2-Butanol, 3-[[2-[[4-[[S(R)]—S-cyclopropylsulfonimidoyl]phenyl]amino]-5-(trifluoromethyl)-4-pyrimidinyl]oxy]-, (2R,3R)—]
CDK1/2/3/4/7/9
  IC50: 5 to 25 nM

## C=CCc1ccc(O)c(-c2ccc(O)c(CC=C)c2)c1 [Honokiol, 2-(4-hydroxy-3-prop-2-enyl-phenyl)-4-prop-2-enyl-phenol]
Akt-phosphorylation
  Effect on Akt-phosphorylation: inhibits
ERK1/2 phosphorylation
  Effect on ERK1/2 phosphorylation: promotes

## CNC(=O)c1c(F)cccc1Nc1nc(Nc2cc3c(cc2OC)CCN3C(=O)CN(C)C)nc2[nH]ccc12 [GSK1838705A, 2-(2-(1-(2-(dimethylamino)acetyl)-5-methoxyindolin-6-ylamino)-7H-pyrrolo[2,3-d]pyrimidin-4-ylamino)-6-fluoro-N-methylbenzamide]
Other protein kinases
  activity to other protein kinases: little activity

## Cn1cnc2c(F)c(Nc3ccc(Br)cc3F)c(C(=O)NOCCO)cc21 [ARRY-162, 5-((4-bromo-2-fluorophenyl)amino)-4-fluoro-N-(2-hydroxyethoxy)-1-methyl-1H-benzo[d]imidazole-6-carboxamide]
MEK1/2
  IC50: 12 nM
Cellular pERK
  IC50: 11 nM
[6]
  Ex vivo effect on cytokine production such as IL-1, TNF and IL-6: inhibition

## Cc1[nH]c(/C=C2\C(=O)Nc3ccccc32)c(C)c1CCC(=O)O [SU6668, (Z)-3-(2,4-dimethyl-5-((2-oxoindolin-3-ylidene)methyl)-1H-pyrrol-3-yl)propanoic acid]
[7]
  Activity against IGF-1R, Met, Src, Lck, Zap70, Abl and CDK2: little activity
[8]
  Inhibition of Flk-1 and FGFR1 trans-phosphorylation: strongly inhibits

## COc1cccc(-c2cc(=O)c3ccccc3o2)c1N [PD98059, 2-(2-amino-3-methoxyphenyl)-4H-chromen-4-one]
MEK
  IC50: […]
ERK1 or ERK2
  Direct inhibition of ERK1 or ERK2: does not directly inhibit

## CC(=O)Nc1cccc(-n2c(=O)n(C3CC3)c(=O)c3c(Nc4ccc(I)cc4F)n(C)c(=O)c(C)c32)c1 [Trametinib, N-(3-{3-Cyclopropyl-5-[(2-fluoro-4-iodophenyl)amino]-6,8-dimethyl-2,4,7-trioxo-3,4,6,7-tetrahydropyrido[4,3-d]pyrimidin-1(2H)-yl}phenyl)acetamide]
c-Raf, B-Raf, ERK1/2
  Kinase activities of c-Raf, B-Raf, ERK1/2: does not inhibit

## N#C/C(=C(/N)Sc1ccc(N)cc1)c1ccccc1C(F)(F)F [SL327, (Z)-3-amino-3-(4-aminophenylthio)-2-(2-(trifluoromethyl)phenyl) acrylonitrile]
[9]
  Activity towards Erk1, MKK3, MKK4, c-JUN, PKC, PKA, or CamKII: no activity
MEK1
  IC50: ~180 nM
MEK2
  IC50: ~220 nM

## C[C@]12O[C@H](C[C@]1(O)CO)n1c3ccccc3c3c4c(c5c6ccccc6n2c5c31)CNC4=O [Lestaurtinib, (9S,10S,12R)-2,3,9,10,11,12-Hexahydro-10-hydroxy-10-(hydroxymethyl)-9-methyl-9,12-epoxy-1H-diindolo[1,2,3-fg:3′,2′,l′-kl]pyrrolo[3,4-i][1, 6]benzodiazocin-1-one]
[10]
  effect against myeloproliferative disorders in vivo: effective
HEL92.1.7 cells [11]
  IC50: 30 to 100 nM
HEL92.1.7 cells [12]
  IC50: 30 to 100 nM
[13]
  effect against myeloproliferative disorders in vivo: effective
STAT5 phosphorylation [14]
  IC50: 20 to 30 nM
STAT5 phosphorylation [15]
  IC50: 20 to 30 nM

## COc1cc2ncc(-c3ccccc3)nc2cc1OC [Tyrphostin AG 1296, Quinoxaline, 6,7-dimethoxy-2-phenyl-]
PDGFR
  IC50: 300 to 500 nM
EGFR
  Activity against EGFR: no activity

## CN(C)Cc1cccc(N/C(=C2\C(=O)Nc3cc(C(=O)N(C)C)ccc32)c2ccccc2)c1 [BIX 02189, (Z)-3-((3-((dimethylamino)methyl)phenylamino)(phenyl)methylene)-N,N-dimethyl-2-oxoindoline-6-carboxamide]
[16]
  Inhibition of closely related kinases MEK1, MEK2, ERK2, and JNK2: does not inhibit
